Experimental data from PubChem BioAssay (NCI).
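Step 1: Grow cells in 96-well plates. Step 2: Expose to compound for 48 hours at 5 concentrations. Step 3: Interpolate endpoints linearly; if unreached, use highest concentration. TGI denotes the concentration required for complete inhibition of growth.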

What was measured:
Experiment in all cases: DTP human tumour cell line panel, 48 h
786-0 renal = tested on: 786-0 renal
A498 renal = tested on: A498 renal
A549 NSCLC = tested on: A549 NSCLC
ACHN renal = tested on: ACHN renal
BT-549 breast = tested on: BT-549 breast
CAKI-1 renal = tested on: CAKI-1 renal
CCRF-CEM leukemia = tested on: CCRF-CEM leukemia
COLO 205 colon = tested on: COLO 205 colon
DU-145 prostate = tested on: DU-145 prostate
EKVX NSCLC = tested on: EKVX NSCLC
HCC-2998 colon = tested on: HCC-2998 colon
HCT-116 colon = tested on: HCT-116 colon
HCT-15 colon = tested on: HCT-15 colon
HL-60(TB) leukemia = tested on: HL-60(TB) leukemia
HOP-62 NSCLC = tested on: HOP-62 NSCLC
HOP-92 NSCLC = tested on: HOP-92 NSCLC
HS 578T breast = tested on: HS 578T breast
HT29 colon = tested on: HT29 colon
K-562 leukemia = tested on: K-562 leukemia
KM12 colon = tested on: KM12 colon
LOX IMVI melanoma = tested on: LOX IMVI melanoma
M14 melanoma = tested on: M14 melanoma
MALME-3M melanoma = tested on: MALME-3M melanoma
MCF7 breast = tested on: MCF7 breast
MDA-MB-231 breast = tested on: MDA-MB-231 breast
MDA-MB-435 = tested on: MDA-MB-435
MDA-N = tested on: MDA-N
MOLT-4 leukemia = tested on: MOLT-4 leukemia
NCI-H226 lung = tested on: NCI-H226 lung
NCI-H23 lung = tested on: NCI-H23 lung
NCI-H460 lung = tested on: NCI-H460 lung
NCI-H522 lung = tested on: NCI-H522 lung
NCI/ADR-RES ovarian = tested on: NCI/ADR-RES ovarian
OVCAR-3 ovarian = tested on: OVCAR-3 ovarian
OVCAR-4 ovarian = tested on: OVCAR-4 ovarian
OVCAR-5 ovarian = tested on: OVCAR-5 ovarian
OVCAR-8 ovarian = tested on: OVCAR-8 ovarian
PC-3 prostate = tested on: PC-3 prostate
RPMI-8226 leukemia = tested on: RPMI-8226 leukemia
RXF 393 renal = tested on: RXF 393 renal
SF-268 CNS = tested on: SF-268 CNS
SF-295 CNS = tested on: SF-295 CNS
SF-539 CNS = tested on: SF-539 CNS
SK-MEL-2 melanoma = tested on: SK-MEL-2 melanoma
SK-MEL-28 melanoma = tested on: SK-MEL-28 melanoma
SK-MEL-5 melanoma = tested on: SK-MEL-5 melanoma
SK-OV-3 ovarian = tested on: SK-OV-3 ovarian
SN12C renal = tested on: SN12C renal
SNB-19 CNS = tested on: SNB-19 CNS
SNB-75 CNS = tested on: SNB-75 CNS
SR leukemia = tested on: SR leukemia
SW-620 colon = tested on: SW-620 colon
T-47D breast = tested on: T-47D breast
TK-10 renal = tested on: TK-10 renal
U251 CNS = tested on: U251 CNS
UACC-257 melanoma = tested on: UACC-257 melanoma
UACC-62 melanoma = tested on: UACC-62 melanoma
UO-31 renal = tested on: UO-31 renal
DLD-1 colon = tested on: DLD-1 colon
DMS 114 small cell lung = tested on: DMS 114 small cell lung
DMS 273 small cell lung = tested on: DMS 273 small cell lung
IGROV1 ovarian = tested on: IGROV1 ovarian
LXFL 529 NSCLC = tested on: LXFL 529 NSCLC

Structure (SMILES): COc1cc2nc(-c3c(F)cccc3F)n(Cc3c(F)cccc3F)c2cc1Cc1c(F)cccc1F
- TGI (786-0 renal): > 100 µM
- TGI (A498 renal): > 100 µM
- TGI (A549 NSCLC): > 100 µM
- TGI (ACHN renal): > 100 µM
- TGI (BT-549 breast): > 100 µM
- TGI (CAKI-1 renal): > 100 µM
- TGI (CCRF-CEM leukemia): > 100 µM
- TGI (COLO 205 colon): > 100 µM
- TGI (DU-145 prostate): > 100 µM
- TGI (EKVX NSCLC): > 100 µM
- TGI (HCC-2998 colon): > 100 µM
- TGI (HCT-116 colon): > 100 µM
- TGI (HCT-15 colon): > 100 µM
- TGI (HL-60(TB) leukemia): > 100 µM
- TGI (HOP-62 NSCLC): > 100 µM
- TGI (HOP-92 NSCLC): > 30.8 µM
- TGI (HS 578T breast): > 100 µM
- TGI (HT29 colon): > 100 µM
- TGI (K-562 leukemia): > 100 µM
- TGI (KM12 colon): > 100 µM
- TGI (LOX IMVI melanoma): > 100 µM
- TGI (M14 melanoma): > 100 µM
- TGI (MALME-3M melanoma): > 100 µM
- TGI (MCF7 breast): > 63.9 µM
- TGI (MDA-MB-231 breast): > 100 µM
- TGI (MDA-MB-435): > 100 µM
- TGI (MDA-N): > 100 µM
- TGI (MOLT-4 leukemia): > 100 µM
- TGI (NCI-H226 lung): > 100 µM
- TGI (NCI-H23 lung): > 100 µM
- TGI (NCI-H460 lung): > 100 µM
- TGI (NCI-H522 lung): > 100 µM
- TGI (NCI/ADR-RES ovarian): > 100 µM
- TGI (OVCAR-3 ovarian): > 100 µM
- TGI (OVCAR-4 ovarian): 10.9 µM
- TGI (OVCAR-5 ovarian): > 100 µM
- TGI (OVCAR-8 ovarian): > 100 µM
- TGI (PC-3 prostate): > 100 µM
- TGI (RPMI-8226 leukemia): > 100 µM
- TGI (RXF 393 renal): > 28.9 µM
- TGI (SF-268 CNS): > 100 µM
- TGI (SF-295 CNS): > 100 µM
- TGI (SF-539 CNS): > 100 µM
- TGI (SK-MEL-2 melanoma): > 82.2 µM
- TGI (SK-MEL-28 melanoma): 1.4 µM
- TGI (SK-MEL-5 melanoma): > 100 µM
- TGI (SK-OV-3 ovarian): > 100 µM
- TGI (SN12C renal): > 100 µM
- TGI (SNB-19 CNS): > 100 µM
- TGI (SNB-75 CNS): > 70.8 µM
- TGI (SR leukemia): > 100 µM
- TGI (SW-620 colon): > 100 µM
- TGI (T-47D breast): > 100 µM
- TGI (TK-10 renal): > 100 µM
- TGI (U251 CNS): > 100 µM
- TGI (UACC-257 melanoma): > 100 µM
- TGI (UACC-62 melanoma): > 100 µM
- TGI (UO-31 renal): > 100 µM

Structure (SMILES): O=C1NC(=S)S/C1=C/c1ccco1
- TGI (A498 renal): 64.3 µM
- TGI (A549 NSCLC): > 100 µM
- TGI (ACHN renal): > 100 µM
- TGI (CAKI-1 renal): > 100 µM
- TGI (COLO 205 colon): > 100 µM
- TGI (DLD-1 colon): > 100 µM
- TGI (DMS 114 small cell lung): > 100 µM
- TGI (DMS 273 small cell lung): > 100 µM
- TGI (EKVX NSCLC): > 100 µM
- TGI (HCC-2998 colon): > 100 µM
- TGI (HCT-116 colon): > 100 µM
- TGI (HCT-15 colon): > 100 µM
- TGI (HOP-92 NSCLC): > 100 µM
- TGI (HT29 colon): > 100 µM
- TGI (IGROV1 ovarian): > 100 µM
- TGI (LOX IMVI melanoma): > 100 µM
- TGI (LXFL 529 NSCLC): > 100 µM
- TGI (M14 melanoma): > 100 µM
- TGI (NCI-H226 lung): > 100 µM
- TGI (NCI-H23 lung): > 100 µM
- TGI (NCI-H460 lung): > 100 µM
- TGI (OVCAR-3 ovarian): > 100 µM
- TGI (OVCAR-4 ovarian): > 100 µM
- TGI (OVCAR-5 ovarian): > 100 µM
- TGI (OVCAR-8 ovarian): > 100 µM
- TGI (RXF 393 renal): > 100 µM
- TGI (SF-268 CNS): > 100 µM
- TGI (SF-295 CNS): > 100 µM
- TGI (SF-539 CNS): > 100 µM
- TGI (SK-MEL-28 melanoma): > 100 µM
- TGI (SK-MEL-5 melanoma): > 100 µM
- TGI (SK-OV-3 ovarian): > 100 µM
- TGI (SN12C renal): > 100 µM
- TGI (SNB-19 CNS): > 100 µM
- TGI (SNB-75 CNS): > 100 µM
- TGI (SW-620 colon): > 100 µM
- TGI (TK-10 renal): > 100 µM
- TGI (UACC-257 melanoma): > 100 µM
- TGI (UACC-62 melanoma): > 100 µM
- TGI (UO-31 renal): > 100 µM

Structure (SMILES): COn1cc(CO)c2ccccc21
- TGI (786-0 renal): > 100 µM
- TGI (A498 renal): 3.67 µM
- TGI (A549 NSCLC): > 100 µM
- TGI (ACHN renal): > 100 µM
- TGI (BT-549 breast): > 100 µM
- TGI (CAKI-1 renal): > 54.8 µM
- TGI (CCRF-CEM leukemia): > 100 µM
- TGI (COLO 205 colon): > 100 µM
- TGI (DU-145 prostate): > 100 µM
- TGI (EKVX NSCLC): > 100 µM
- TGI (HCC-2998 colon): > 100 µM
- TGI (HCT-116 colon): > 100 µM
- TGI (HCT-15 colon): > 100 µM
- TGI (HL-60(TB) leukemia): > 100 µM
- TGI (HOP-62 NSCLC): > 100 µM
- TGI (HOP-92 NSCLC): > 100 µM
- TGI (HS 578T breast): > 100 µM
- TGI (HT29 colon): > 100 µM
- TGI (IGROV1 ovarian): > 100 µM
- TGI (K-562 leukemia): > 100 µM
- TGI (KM12 colon): > 100 µM
- TGI (LOX IMVI melanoma): > 100 µM
- TGI (M14 melanoma): > 100 µM
- TGI (MALME-3M melanoma): > 100 µM
- TGI (MCF7 breast): > 100 µM
- TGI (MDA-MB-231 breast): > 100 µM
- TGI (MDA-MB-435): > 100 µM
- TGI (MDA-N): > 100 µM
- TGI (MOLT-4 leukemia): > 100 µM
- TGI (NCI-H226 lung): 6.35 µM
- TGI (NCI-H23 lung): > 100 µM
- TGI (NCI-H460 lung): > 100 µM
- TGI (NCI-H522 lung): 72.9 µM
- TGI (NCI/ADR-RES ovarian): > 100 µM
- TGI (OVCAR-3 ovarian): > 100 µM
- TGI (OVCAR-4 ovarian): > 100 µM
- TGI (OVCAR-5 ovarian): 42.5 µM
- TGI (OVCAR-8 ovarian): > 100 µM
- TGI (PC-3 prostate): > 100 µM
- TGI (RPMI-8226 leukemia): > 100 µM
- TGI (RXF 393 renal): 47.8 µM
- TGI (SF-268 CNS): > 100 µM
- TGI (SF-295 CNS): > 100 µM
- TGI (SF-539 CNS): > 100 µM
- TGI (SK-MEL-2 melanoma): > 100 µM
- TGI (SK-MEL-28 melanoma): > 100 µM
- TGI (SK-MEL-5 melanoma): > 100 µM
- TGI (SK-OV-3 ovarian): > 100 µM
- TGI (SN12C renal): > 100 µM
- TGI (SNB-19 CNS): > 100 µM
- TGI (SNB-75 CNS): > 100 µM
- TGI (SR leukemia): > 100 µM
- TGI (SW-620 colon): > 100 µM
- TGI (T-47D breast): > 100 µM
- TGI (TK-10 renal): > 46.2 µM
- TGI (U251 CNS): > 100 µM
- TGI (UACC-257 melanoma): > 70.8 µM
- TGI (UACC-62 melanoma): > 100 µM
- TGI (UO-31 renal): > 82 µM
